Experimental data as given in patent US11420973B2, “Amide substituted indole compounds useful as TLR inhibitors” (BRISTOL-MYERS SQUIBB COMPANY, priority 2017, dated 2022).
Structures can show the parent of a compound that is named as a salt.

Legend:
human TLR7 = human TLR7 (Homo sapiens (Human), UniProt Q9NYK1); assay: TLR7 inhibition reporter assay (HEK-Blue SEAP reporter, gardiquimod stimulation); format: cell-based; details: HEK-Blue cells overexpressing human TLR7, gardiquimod 7.5 μM
human TLR8 = human TLR8 (Homo sapiens (Human), UniProt Q9NR97); assay: TLR8 inhibition reporter assay (HEK-Blue SEAP reporter, R848 stimulation); details: read-out: TLR8 IC50; HEK-Blue cells overexpressing human TLR8, R848 15.9 μM, SEAP reporter;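 also: SEAP driven by IFN-β minimal promoter with NF-κB and AP-1 sites, 22 h incubation, compounds 0.05 nM–50 µM, inhibition scaled between agonist plus DMSO and reference inhibitor wells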
human TLR8, sequence (Q9NR97 27-1041): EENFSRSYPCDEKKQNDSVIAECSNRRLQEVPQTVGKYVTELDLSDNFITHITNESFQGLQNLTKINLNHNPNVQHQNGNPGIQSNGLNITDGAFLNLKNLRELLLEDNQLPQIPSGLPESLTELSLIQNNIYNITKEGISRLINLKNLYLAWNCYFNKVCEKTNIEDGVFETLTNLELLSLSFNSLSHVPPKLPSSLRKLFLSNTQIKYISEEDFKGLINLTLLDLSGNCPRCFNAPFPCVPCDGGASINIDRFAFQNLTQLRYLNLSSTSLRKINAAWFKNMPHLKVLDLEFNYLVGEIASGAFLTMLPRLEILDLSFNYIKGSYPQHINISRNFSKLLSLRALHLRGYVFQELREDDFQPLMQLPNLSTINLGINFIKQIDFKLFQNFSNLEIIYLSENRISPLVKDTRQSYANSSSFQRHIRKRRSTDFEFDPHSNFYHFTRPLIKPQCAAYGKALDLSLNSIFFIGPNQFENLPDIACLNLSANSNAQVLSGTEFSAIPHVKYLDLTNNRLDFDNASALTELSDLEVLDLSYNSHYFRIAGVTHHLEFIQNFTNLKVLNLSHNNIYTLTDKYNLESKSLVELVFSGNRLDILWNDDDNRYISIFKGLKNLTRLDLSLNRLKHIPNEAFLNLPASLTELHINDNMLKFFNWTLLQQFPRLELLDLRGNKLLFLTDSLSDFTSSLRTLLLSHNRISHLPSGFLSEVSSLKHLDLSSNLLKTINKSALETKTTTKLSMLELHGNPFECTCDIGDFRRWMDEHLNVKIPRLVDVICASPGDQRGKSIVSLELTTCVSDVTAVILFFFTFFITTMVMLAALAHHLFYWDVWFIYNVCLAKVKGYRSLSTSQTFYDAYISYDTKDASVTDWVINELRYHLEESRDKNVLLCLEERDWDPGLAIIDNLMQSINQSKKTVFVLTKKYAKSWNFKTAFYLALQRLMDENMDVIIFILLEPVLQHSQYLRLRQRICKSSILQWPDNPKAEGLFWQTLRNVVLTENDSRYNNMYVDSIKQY
Procedure: (§1) HEK-Blue™-cells (Invivogen) overexpressing human TLR7, TLR8 or TLR9 receptors were used for screening inhibitors of these receptors using an inducible SEAP (secreted embryonic alkaline phosphatase) reporter gene under the control of the IFN-β minimal promoter fused to five NF-κB and AP-1-binding sites. Briefly, cells are seeded into Greiner 384 well plates (15000 cells per well for TLR7, 20,000 for TLR8 and 25,000 for TLR9) and then treated with test compounds in DMSO to yield a final dose response concentration range of 0.05 nM-50 μM. After a 30 minute compound pre-treatment at room temperature, the cells are then stimulated with a TLR7 ligand (gardiquimod at a final concentration of 7.5 μM), TLR8 ligand (R848 at a final concentration of 15.9 μM) or TLR9 ligand (ODN2006 at a final concentration of 5 nM) to activate NF-κB and AP-1 which induce the production of SEAP. After a 22 hour incubation at 37° C., 5% CO2, SEAP levels are determined with the addition of HEK-Blue™ Detection reagent (Invivogen), a cell culture medium that allows for detection of SEAP, according to manufacturer's specifications.

human TLR9 = human TLR9 (Homo sapiens (Human), UniProt Q9NR96); assay: TLR9 inhibition reporter assay (HEK-Blue SEAP reporter, ODN2006 stimulation); details: read-out: TLR9 IC50; HEK-Blue cells overexpressing human TLR9, ODN2006 5 nM, SEAP reporter;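 also: SEAP reporter under IFN-β minimal promoter with five NF-κB and AP-1 sites, 22 h incubation, compounds 0.05 nM–50 µM, inhibition relative to agonist plus DMSO versus known inhibitor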
human TLR9, sequence (Q9NR96 26-1032): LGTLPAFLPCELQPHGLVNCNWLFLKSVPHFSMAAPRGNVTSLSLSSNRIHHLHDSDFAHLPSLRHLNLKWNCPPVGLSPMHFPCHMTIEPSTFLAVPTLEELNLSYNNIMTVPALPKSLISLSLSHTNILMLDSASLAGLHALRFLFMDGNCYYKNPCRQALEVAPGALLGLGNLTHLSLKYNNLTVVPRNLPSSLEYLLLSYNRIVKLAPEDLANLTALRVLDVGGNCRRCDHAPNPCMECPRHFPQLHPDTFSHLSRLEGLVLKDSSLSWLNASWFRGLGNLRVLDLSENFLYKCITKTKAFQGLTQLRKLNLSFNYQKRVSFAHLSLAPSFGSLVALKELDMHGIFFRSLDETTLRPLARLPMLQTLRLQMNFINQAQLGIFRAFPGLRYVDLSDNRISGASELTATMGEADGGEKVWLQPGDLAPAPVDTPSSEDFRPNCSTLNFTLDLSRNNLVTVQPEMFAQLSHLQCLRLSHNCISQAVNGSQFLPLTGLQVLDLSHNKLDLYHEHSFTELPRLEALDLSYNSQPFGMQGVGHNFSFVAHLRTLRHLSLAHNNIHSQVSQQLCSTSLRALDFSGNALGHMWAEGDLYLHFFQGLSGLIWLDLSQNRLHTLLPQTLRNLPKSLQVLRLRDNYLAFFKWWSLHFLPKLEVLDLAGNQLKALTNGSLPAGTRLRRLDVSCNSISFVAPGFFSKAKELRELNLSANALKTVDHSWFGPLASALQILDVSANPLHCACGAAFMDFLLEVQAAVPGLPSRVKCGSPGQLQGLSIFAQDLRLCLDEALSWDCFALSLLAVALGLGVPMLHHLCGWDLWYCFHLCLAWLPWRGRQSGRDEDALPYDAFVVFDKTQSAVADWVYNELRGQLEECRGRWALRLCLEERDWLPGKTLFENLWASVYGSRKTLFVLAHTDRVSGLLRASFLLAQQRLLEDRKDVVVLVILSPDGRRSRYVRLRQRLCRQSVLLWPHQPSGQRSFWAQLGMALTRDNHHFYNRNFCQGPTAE
Procedure: as §1

human TLR7, sequence (Q9NYK1 27-1049): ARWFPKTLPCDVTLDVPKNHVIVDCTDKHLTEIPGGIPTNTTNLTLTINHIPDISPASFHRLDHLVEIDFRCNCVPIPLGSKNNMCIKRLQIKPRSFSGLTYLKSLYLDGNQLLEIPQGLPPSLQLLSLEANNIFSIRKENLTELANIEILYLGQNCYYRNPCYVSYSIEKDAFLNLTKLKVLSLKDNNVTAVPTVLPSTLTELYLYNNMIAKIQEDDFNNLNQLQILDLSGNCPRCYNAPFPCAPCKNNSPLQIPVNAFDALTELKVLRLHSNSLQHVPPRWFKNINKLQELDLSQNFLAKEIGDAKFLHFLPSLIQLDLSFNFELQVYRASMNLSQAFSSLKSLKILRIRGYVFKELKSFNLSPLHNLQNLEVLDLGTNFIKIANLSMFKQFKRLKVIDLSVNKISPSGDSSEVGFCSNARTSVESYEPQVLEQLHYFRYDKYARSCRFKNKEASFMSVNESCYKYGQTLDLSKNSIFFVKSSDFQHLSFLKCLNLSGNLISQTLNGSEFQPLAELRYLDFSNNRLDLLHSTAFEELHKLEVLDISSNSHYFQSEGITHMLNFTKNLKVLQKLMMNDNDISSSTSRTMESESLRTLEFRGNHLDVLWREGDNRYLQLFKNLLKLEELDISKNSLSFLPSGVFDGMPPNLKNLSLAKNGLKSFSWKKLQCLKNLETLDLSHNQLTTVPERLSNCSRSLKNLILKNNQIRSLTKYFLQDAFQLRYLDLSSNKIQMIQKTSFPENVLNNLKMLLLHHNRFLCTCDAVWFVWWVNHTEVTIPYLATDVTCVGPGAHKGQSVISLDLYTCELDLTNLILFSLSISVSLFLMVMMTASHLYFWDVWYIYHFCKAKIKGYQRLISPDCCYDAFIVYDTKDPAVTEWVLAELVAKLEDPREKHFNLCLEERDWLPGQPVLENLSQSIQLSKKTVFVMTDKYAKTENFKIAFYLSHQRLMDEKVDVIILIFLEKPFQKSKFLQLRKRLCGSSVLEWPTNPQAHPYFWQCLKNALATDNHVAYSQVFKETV

| SMILES | IC50 (human TLR7) [nM] | IC50 (human TLR8) [nM] | IC50 (human TLR9) [nM] |
| --- | --- | --- | --- |
| Cc1cc(-c2[nH]c3ccc(C(=O)N4CCCN(C)CC4)cc3c2C(C)C)cc(C)n1 [Example 92, (2-(2,6-dimethylpyridin-4-yl)-3-isopropyl-1H-indol-5-yl)(4-methyl-1,4-diazepan-1-yl)methanone] | 32 | 3.2 | 2470 |
| CCc1c(-c2ccc(OC)c(OC)c2)[nH]c2ccc(C(=O)N3CCN(CC)CC3)cc12 [Example 39, (2-(3,4-dimethoxyphenyl)-3-ethyl-1H-indol-5-yl)(4-ethylpiperazin-1-yl)methanone] | 367 | 2.2 | 4410 |
| CC(C)c1c(-c2ccnc3[nH]ncc23)[nH]c2ccc(C(=O)N3CC4CNCC4C3)cc12 (stereo not drawn) [Example 121, (hexahydropyrrolo[3,4-c]pyrrol-2(1H)-yl)(3-isopropyl-2-(1H-pyrazolo[3,4-b]pyridin-4-yl)-1H-indol-5-yl)methanone, HCl] | 1600 | 122 | 3330 |
| COc1cc(-c2[nH]c3ccc(C(=O)N(C)CCN(C)C)cc3c2C(C)C)cn2ncnc12 [Example 129, N-(2-(dimethylamino)ethyl)-3-isopropyl-2-(8-methoxy-[1,2,4]triazolo[1,5-a]pyridin-6-yl)-N-methyl-1H-indole-5-carboxamide] | 1.8 | 2.3 | 3350 |
| COc1ccc(-c2[nH]c3ccc(C(=O)N4CC5CN(C(=O)CN(C)C)CC5C4)cc3c2C(C)C)cc1OC (stereo not drawn) [Example 9, 1-(5-(2-(3,4-dimethoxyphenyl)-3-isopropyl-1H-indole-5-carbonyl)hexahydropyrrolo[3,4-c]pyrrol-2(1H)-yl)-2-(dimethylamino)ethan-1-one] | 76 | 54 | 5350 |
| Cc1cc(-c2[nH]c3ccc(C(=O)N4CCC(N(C)C)CC4)cc3c2C(C)C)cc(C)n1 [Example 104, (4-(dimethylamino)piperidin-1-yl)(2-(2,6-dimethylpyridin-4-yl)-3-isopropyl-1H-indol-5-yl)methanone] | 14 | 12 | 373 |
| COc1ccc(-c2[nH]c3ccc(C(=O)N4CC5CN(C(=O)CN(C)C)CC5C4)cc3c2CC(F)(F)F)cc1OC (stereo not drawn) [Example 89, 1-(5-(2-(3,4-dimethoxyphenyl)-3-(2,2,2-trifluoroethyl)-1H-indole-5-carbonyl)hexahydropyrrolo[3,4-c]pyrrol-2(1H)-yl)-2-(dimethylamino)ethan-1-one] | 914 | 217 | 5860 |
| Cc1cc(-c2[nH]c3ccc(C(=O)N4CC5CNCC5C4)cc3c2CC(F)F)cc(C)n1 (stereo not drawn) [Example 122, (3-(2,2-difluoroethyl)-2-(2,6-dimethylpyridin-4-yl)-1H-indol-5-yl)(hexahydropyrrolo [3,4-c]pyrrol-2(1H)-yl)methanone] | 2260 | 5650 | 1460 |
| CNC(=O)c1ccc2[nH]c(-c3ccc(OC)c(OC)c3)c(C(C)C)c2c1 [Example 4, 2-(3,4-dimethoxyphenyl)-3-isopropyl-N-methyl-1H-indole-5-carboxamide] | 145 | 27 | 30500 |
| Cc1cc(-c2[nH]c3ccc(C(C)C(=O)NC4CCCC(N)C4)cc3c2C(C)C)ccn1 (stereo not drawn) [Example 218, N-(3-aminocyclohexyl)-2-(3-isopropyl-2-(2-methylpyridin-4-yl)-1H-indol-5-yl)propanamide] | 803 | 1080 | 1400 |
| CCc1c(-c2ccc(OC)c(OC)c2)[nH]c2ccc(C(=O)NCCC(C)(C)NS(C)(=O)=O)cc12 [Example 71, 2-(3,4-dimethoxyphenyl)-3-ethyl-N-(3-methyl-3-(methylsulfonamido)butyl)-1H-indole-5-carboxamide] | 1630 | 439 | > 50000 |
| Cc1cc(-c2[nH]c3ccc(C(C)(C)C(=O)N4CC5CNCC5C4)cc3c2C(C)C)ccn1 (stereo not drawn) [Example 183, 1-(hexahydropyrrolo[3,4-c]pyrrol-2(1H)-yl)-2-(3-isopropyl-2-(2-methylpyridin-4-yl)-1H-indol-5-yl)-2-methylpropan-1-one] | 30 | 103 | 387 |
| CC(C)c1c(-c2ccnc3[nH]ncc23)[nH]c2ccc(CCC(=O)N3CCOCC3)cc12 [Example 136, 3-(3-isopropyl-2-(1H-pyrazolo[3,4-b]pyridin-4-yl)-1H-indol-5-yl)-1-morpholinopropan-1-one] | 1760 | 411 | > 50000 |
| Cc1cc(-c2[nH]c3ccc(C(C)C(=O)N4CC5CN(C)CC5C4)cc3c2C(C)C)ccn1 (stereo not drawn) [Example 197, 2-(3-isopropyl-2-(2-methylpyridin-4-yl)-1H-indol-5-yl)-1-(5-methylhexahydropyrrolo[3,4-c]pyrrol-2(1H)-yl)propan-1-one] | 200 | 130 | 3290 |

More lines, in order of falling IC50 (human TLR7), values ahead:

| IC50 (human TLR7) [nM] | IC50 (human TLR8) [nM] | IC50 (human TLR9) [nM] | SMILES |
| --- | --- | --- | --- |
| 776 | 160 | 386 | CCc1c(-c2ccnc(C)c2)[nH]c2ccc(C(=O)N3CC4CNCC4C3)cc12 (stereo not drawn) [Example 85, (3-ethyl-2-(2-methylpyridin-4-yl)-1H-indol-5-yl)(hexahydropyrrolo[3,4-c]pyrrol-2(1H)-yl)methanone] |
| 493 | 381 | > 50000 | CCc1c(-c2ccc(OC)c(OC)c2)[nH]c2ccc(C(=O)N3CCNC(=O)C3)cc12 [Example 62, 4-(2-(3,4-dimethoxyphenyl)-3-ethyl-1H-indole-5-carbonyl)piperazin-2-one] |
| 391 | 60 | 931 | CCc1c(-c2ccc(OC)c(OC)c2)[nH]c2ccc(C(=O)NCc3ccc(N4CCNCC4)cc3)cc12 [Example 46, 2-(3,4-dimethoxyphenyl)-3-ethyl-N-(4-(piperazin-1-yl)benzyl)-1H-indole-5-carboxamide] |
| 296 | 365 | 746 | Cc1cc(-c2[nH]c3ccc(C(C)C(=O)N4CCC(N)CC4)cc3c2C(C)C)ccn1 (stereo not drawn) [Example 203, 1-(4-aminopiperidin-1-yl)-2-(3-isopropyl-2-(2-methylpyridin-4-yl)-1H-indol-5-yl)propan-1-one] |
| 296 | 124 | 1050 | CCc1c(-c2ccc(OC)c(OC)c2)[nH]c2ccc(C(=O)N3CC4CNCC4C3)cc12 (stereo not drawn) [Example 79, (2-(3,4-dimethoxyphenyl)-3-ethyl-1H-indol-5-yl)(hexahydropyrrolo[3,4-c]pyrrol-2(1H)-yl)methanone] |
| 280 | 210 | 718 | Cc1cc(-c2[nH]c3ccc(C(C)C(=O)N(C)C4CCCNC4)cc3c2C(C)C)ccn1 (stereo not drawn) [Example 210, 2-(3-isopropyl-2-(2-methylpyridin-4-yl)-1H-indol-5-yl)-N-methyl-N-(piperidin-3-yl)propanamide] |
| 147 | 306 | 1000 | Cc1cc(-c2[nH]c3ccc(C(C)(C)C(=O)N4CCCC5(CNC5)C4)cc3c2C(C)C)ccn1 [Example 180, 2-(3-isopropyl-2-(2-methylpyridin-4-yl)-1H-indol-5-yl)-2-methyl-1-(2,6-diazaspiro[3.5]nonan-6-yl)propan-1-one] |
| 113 | 143 | 2040 | Cc1cc(-c2[nH]c3ccc(C(C)(C)C(=O)N4CCC[C@H](N)C4)cc3c2C(C)C)ccn1 [Example 155, (S)-1-(3-aminopiperidin-1-yl)-2-(3-isopropyl-2-(2-methylpyridin-4-yl)-1H-indol-5-yl)-2-methylpropan-1-one] |
| 109 | 32 | 840 | COc1ccc(-c2[nH]c3ccc(CCC(=O)N4CC5CNCC5C4)cc3c2C(C)C)cc1OC (stereo not drawn) [Example 137, 3-(2-(3,4-dimethoxyphenyl)-3-isopropyl-1H-indol-5-yl)-1-(hexahydropyrrolo[3,4-c]pyrrol-2(1H)-yl)propan-1-one] |
| 58 | 325 | 1800 | Cc1cc(-c2[nH]c3ccc(C(C)(C)C(=O)NC[C@H]4CC[C@H](N)CC4)cc3c2C(C)C)ccn1 [Example 172, N-(((1r,4r)-4-aminocyclohexyl)methyl)-2-(3-isopropyl-2-(2-methylpyridin-4-yl)-1H-indol-5-yl)-2-methylpropanamide] |
| 46 | 320 | > 50000 | Cc1cc(-c2[nH]c3ccc(C(=O)N(C)Cc4cccnc4)cc3c2C(C)C)cc(C)n1 [Example 100, 2-(2,6-dimethylpyridin-4-yl)-3-isopropyl-N-methyl-N-(pyridin-3-ylmethyl)-1H-indole-5-carboxamide] |
| 42 | 31 | 1740 | Cc1cc(-c2[nH]c3ccc(C(C)(C)C(=O)N(C)C4CCCNC4)cc3c2C(C)C)ccn1 (stereo not drawn) [Example 161, 2-(3-isopropyl-2-(2-methylpyridin-4-yl)-1H-indol-5-yl)-N,2-dimethyl-N-(piperidin-3-yl)propanamide] |
